# Assay results reported in PubChem BioAssay (NCI).
# “And” between values parts separate entries of the source, which are not always exact repeats. Equal entries are not always repeated.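 Method: 48-hour compound exposure of cells in 96-well plates, five concentrations, linear interpolation of endpoints. At the GI50, growth is halved. TGI: concentration producing complete growth inhibition.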
# Tests used:
# Experiment in all cases: NCI anticancer screen, dose series, 48 h
# SNB-78 CNS = tested on: SNB-78 CNS
# LXFL 529 NSCLC = tested on: LXFL 529 NSCLC
# DMS 114 small cell lung = tested on: DMS 114 small cell lung
# KM20L2 colon = tested on: KM20L2 colon
# HOP-18 NSCLC = tested on: HOP-18 NSCLC
# DLD-1 colon = tested on: DLD-1 colon
# XF 498 CNS = tested on: XF 498 CNS
# MDA-N = tested on: MDA-N
# RXF-631 renal = tested on: RXF-631 renal
Compound,GI50 (SNB-78 CNS),TGI (SNB-78 CNS),GI50 (LXFL 529 NSCLC),TGI (LXFL 529 NSCLC),GI50 (DMS 114 small cell lung),TGI (DMS 114 small cell lung),GI50 (KM20L2 colon),TGI (KM20L2 colon),GI50 (HOP-18 NSCLC),TGI (HOP-18 NSCLC),GI50 (DLD-1 colon),TGI (DLD-1 colon),TGI (XF 498 CNS),TGI (MDA-N),TGI (RXF-631 renal),GI50 (MDA-N)
c1cc[c]([Ge]([O]c2cccc3cccnc23)([c]2ccccc2)[c]2ccccc2)cc1,4.34 µM,17.7 µM,2310 nM,5.27 µM,2320 nM,5.06 µM,2590 nM,5.97 µM,1260 nM,8.37 µM,3.22 µM,11.3 µM,–,–,–,–
COc1ccc2cc3c4cc(OC)c(OC)cc4ccn3c2c1,–,> 100 µM,–,> 100 µM,–,> 100 µM,–,–,–,> 100 µM,–,> 100 µM,> 100 µM,–,–,–
CCNCC(=O)Nc1ccc2c(c1)C(=O)c1ccc(NC(=O)CNCC)cc1C2=O,–,–,–,–,–,–,–,–,–,–,–,–,–,18.9 µM,–,–
Cc1nc2ccccc2c(=O)n1/N=C(\N=Nc1ccccc1)c1ccccc1Cl,–,> 100 µM,–,> 100 µM,–,> 90.1 µM,–,> 100 µM,–,30.1 µM,–,> 100 µM,44.9 µM,–,> 100 µM,–
CC(=O)O[C@@H]1c2c(c3c(=O)c4cccc(O)c4c(=O)c=3c2=[N+]=[N-])[C@H](OC(C)=O)[C@@H](OC(C)=O)[C@]1(C)O,–,–,–,–,–,–,–,–,–,–,–,–,–,1.05 µM and 0.733 µM,–,235 nM
CC(=O)OCC1OC(SC2=N/C(=C\c3ccc(Br)s3)C(=O)N2c2ccccc2)C(OC(C)=O)C(OC(C)=O)C1OC(C)=O (stereo unspecified),–,–,–,–,–,–,–,–,–,–,–,–,–,> 100 µM,–,–
O/N=C1/CCCC/C1=C\c1ccc(Cl)c(Cl)c1,–,70.5 µM,–,54.4 µM,–,59.8 µM,–,43.4 µM,–,59.8 µM,–,> 100 µM,46.4 µM,–,–,–
O=CCCn1[nH]c(=O)ccc1=O,–,> 100 µM,–,–,–,> 100 µM,–,> 100 µM,–,–,–,> 100 µM,–,–,–,–
O=C1CCCc2ccc([N+](=O)[O-])c(O)c21,–,> 100 µM,–,> 100 µM,–,> 100 µM,–,> 100 µM,–,–,–,> 100 µM,–,–,–,–
NC1=NN(c2ccccc2)C(=O)C1C(=O)C(=O)Nc1ccccc1 (stereo unspecified),–,> 100 µM,–,> 100 µM,–,> 100 µM,–,> 100 µM,–,> 100 µM,–,> 100 µM,> 100 µM,–,–,–
COc1ccc(C2(Cl)C(Cl)(C(F)(F)F)C2(Cl)C(F)(F)F)cc1 (stereo unspecified),–,29.7 µM,–,27.1 µM,–,25 µM,–,28.9 µM,–,28.6 µM,–,29.4 µM,25.5 µM,–,30.3 µM,–
C=C(C)CC(C(=O)O)c1ccc(C)cc1 (stereo unspecified),–,> 100 µM,–,–,–,> 100 µM,–,> 100 µM,–,> 100 µM,–,> 100 µM,> 100 µM,–,–,–
C[C@]12Cc3conc3C(O)=C1CC[C@@H]1C2CC[C@@]2(C)C1CC[C@@H]2O (stereo partly specified),–,> 100 µM,–,33.5 µM,–,–,–,> 100 µM,–,> 100 µM,–,–,33.9 µM,–,–,–
Cn1cnc([N+](=O)[O-])c1Sc1n[nH]c(-c2ccc(Cl)cc2)n1,–,70.7 µM,–,36.7 µM,–,49.7 µM,–,–,–,8.3 µM,–,52.5 µM,27.6 µM,–,59 µM,–
CC(=O)N1c2ccccc2N(C(C)=O)C1c1ccc(C2N(C(C)=O)c3ccccc3N2C(C)=O)[nH]1,–,–,–,> 100 µM,–,> 100 µM,–,> 100 µM,–,–,–,–,> 100 µM,–,> 100 µM,–
CC1(C)C(=O)/C=C\C(=O)C(C)(C)C2=CC=C(O2)C(C)(C)C(=O)C(Br)C(Br)C(=O)C(C)(C)C2=CC=C1O2 (stereo unspecified),–,> 100 µM,–,> 100 µM,–,> 31.6 µM,–,> 100 µM,–,> 100 µM,–,87.2 µM,> 100 µM,> 100 µM,> 100 µM,–
C=CC12CCCCC1CC(C(=O)OC)=C(O)C2 (stereo unspecified),–,> 100 µM,–,> 100 µM,–,> 100 µM,–,> 100 µM,–,> 100 µM,–,> 100 µM,> 100 µM,–,> 100 µM,–
O=S(O)O.O=S(O)O.[Co].[NH2-].[NH2-].[NH2-].[NH2-],–,–,–,–,–,–,–,–,–,–,–,–,–,> 100 µM,–,> 100000 nM
O=CN/C=C/c1ccccc1,–,> 100 µM,–,> 100 µM,–,–,–,> 100 µM,–,> 100 µM,–,> 100 µM,–,–,> 100 µM,–
CCOC(=O)C1CC(=O)C=C2CCCCC21 (stereo unspecified),–,> 100 µM,–,> 100 µM,–,> 100 µM,–,–,–,–,–,> 100 µM,> 100 µM,–,> 100 µM,–
C=CCCn1nc(-c2ccccc2)oc1=O,–,> 100 µM,–,> 100 µM,–,–,–,> 100 µM,–,> 100 µM,–,> 100 µM,> 100 µM,–,–,–
CN1CCc2ccccc2C1Cc1ccccc1NC(=O)c1sc2ccccc2c1Cl (stereo unspecified),–,–,–,–,–,–,–,–,–,–,–,–,–,> 100 µM,–,–
C[C@@H]1CC[C@@]2(C)OC(c3ccccc3)[C@H](CO)N2C1=O (stereo partly specified),–,> 100 µM,–,–,–,> 100 µM,–,> 100 µM,–,> 100 µM,–,> 100 µM,> 100 µM,–,–,–
N#CC(Sc1ccccc1)C(N)=O (stereo unspecified),–,> 100 µM,–,> 100 µM,–,> 100 µM,–,> 100 µM,–,> 100 µM,–,> 100 µM,> 100 µM,–,> 100 µM,–
